# Earlier results in patent US8017153B2, “Dietary supplement composition for blood lipid health” (U.S. Nutraceuticals, LLC, priority 2006, dated 2011).
# Settings: Human studies
substance,measurement,value
[^3H]-octacosanol,total radioactivity excreted in the feces,81-91%
same,total radioactivity found in urine,1.2%
